# Test results: patent US7022484B2, “Methods for treating neuropathological states and neurogenic inflammatory states and methods for identifying compounds useful therein” (Board of Regents, The University of Texas System, priority 2000, dated 2006)
# Experiments:
# rat arthritis model = assay: Paw withdrawal latency (PWL) to radiant heat in rat kaolin/carrageenan knee joint inflammation model; assay type: in vivo; conditions: spinal microdialysis pre-treatment; 4 hours after induction of arthritis
# Experimental: All studies followed the guidelines of the Institute Animal Care and Use Committee, in accordance with the guidelines of the National Institutes of Health. All animals were hosted in a room with a constant ambient temperature of 22° C. and 12 hour light/dark cycle with free access to food and water. Eighty-five Sprague-Dawley rats (250–300 grams) total were used in experiments conducted for biochemical, behavioral, and immunocytochemistry studies. […] On Day 2 baseline behavioral testing was followed by infusion of agents for 1.5 hours (pretreatment) prior to induction of knee joint inflammation under brief anesthesia. Behavioral testing was repeated 4 hours after induction of joint inflammation. Anesthetized animals were either transcardially perfused with aldehydes for immunohistochemical studies or fresh, frozen tissues collected for biochemical studies.
# A microdialysis fiber was implanted into the spinal dorsal horn of anesthetized rats (sodium pentobarbital, 50 mg/kg) one day prior to the induction of arthritis according to the procedure of Skilling et al. (J. Neurochem., 51:127–132 (1988)), as described in Sluka et al. (Neurosci. Lett., 145:141–144 (1992)). Briefly, a small midline incision was made in the skin over the T12 vertebral level. The vertebrae were cleared of muscle and two 1 millimeter (mm) holes were drilled in the lateral aspect of both sides of the T12 vertebrae to expose the L4 spinal segment. A microdialysis fiber ([…], 45,000 MW cut-off, Hospal, AN69, Hospal Industrie, Meyzieu, France), was passed transversely across the deep dorsal horn and stabilized with dental cement. The microdialysis fiber was then passed through the holes in the vertebrae and transversely through the dorsal horn of the spinal cord. A 2 mm section of the microdialysis fiber lies in the dorsal horn at the level of L3–4 segment. The tubing was coated with epoxy except for a permeable portion passing through the spinal grey matter. The microdialysis fiber was connected to PE20 tubing (Becton Dickinson and Company, San Mateo, Calif.) which was tunneled under the skin to the nape of the neck. Alternatively as a systemic control for drug administration, the microdialysis fiber was implanted only in the subcutaneous tissue over the back muscle and tunneled to the neck. Artificial cerebrospinal fluid (aCSF) was made as described by Sorkin et al. (J. Neurosci. Methods, 23, 131–138 (1988)) and was infused (5 microliters/minute) for 1.5 hours and then the tube was heat-sealed for use on the following day.
# Dose response curves were generated for Genistein with animals receiving Genistein spinally at concentration of 0.2 mM (n=3), 0.5 mM (n=3), 1 mM (n=9), and 2 mM (n=3). Animals received Lavendustin A or B spinally at concentrations of 0.1 mM (n=3), 0.5 mM (n=3), and 1 mM (n=5) as a positive and negative control for Genistein. […] Daidzein was tested at a dose of 1 mM (n=3). […] Eight additional animals received the vehicle, 50% DMSO in aCSF, as a control.
# An acute inflammatory response restricted to the knee joint can be induced by the injection of 3% kaolin and 3% carrageenan (in sterile saline; 0.1 ml; pH 7.4) into the joint cavity while the animal is briefly anesthetized with sodium methohexital (Brevital, 60 mg/kg, i.p.). Kaolin and carrageenan were obtained from Fisher Scientific, St. Louis, Mo. The knee joint is flexed manually until the rat awakes (approximately 5–10 minutes). In this arthritis model in the awake rat, localized joint swelling, as well as limping and guarding of the limb, are well developed at 4 hours (Sluka et al., Pain, 59, 95–100 (1994)) when behavioral testing begins.
# Fifty-five rats were used for behavioral studies. Four hours after induction of the arthritis, the joint is swollen and increased withdrawal responses to radiant heat and spontaneous guarding of the limb were noted. The increased responsiveness to noxious stimuli indicates the presence of secondary hyperalgesia. […]
# [1] = tested on: protein tyrosine kinase (PTK); conditions: cited from earlier work
# NMDA currents = conditions: patch clamp studies; cited from earlier work
# NR1 subunit [2] = assay: Immunocytochemistry of NR1 translocation in synovial clonal line SW982; assay type: cell-based, human; conditions: synovial clonal cell model
# Experimental: (§1) The cultured cell lines used in these studies were the human neuroblastoma clonal line, SHSY5Y, and the human synovial sarcoma clonal line, SW982, both available through the American Tissue Type Culture Collection (item number CRL 2266 and HTB-93, respectively). Cells were grown in Dulbecco's Modification of Eagles Medium (DMEM) without L-glutamine, with 4.5 grams/Liter glucose, and with 10% bovine fetal serum in a tissue culture incubator at 37° C. in a gaseous mixture of O2/CO2. Cells were routinely split as necessary to maintain proper cell density. Cells were removed from plates by adding TRYPSIN/EDTA in Hank's Balanced Salt solution. After cell counts, approximately 10,000 cells were plated per well in a culture dish. For experiments, the cells were plated into 35 mm Petri dishes or 6- or 24-well plates as needed.
# For immunocytochemistry experiments and some western blot experiments, SW982 cells were exposed to glutamate (1 μM to 10 μM), or glutamate analog NMDA (or related glutamate compound)(5 μM) and Genistein (10 mM). At various timepoints of exposure, including 4, 12, and 24 hours, cells were collected for Western blot measurement of NR1 or fixed with aldehydes and stained to visualize the location of glutamate receptor subunit NR1 using a specific antibody directed to either the C-terminus or the N-terminus of the NR1 protein. […]
# NR1 subunit [3] = assay: Western blot of NR1 in cytosolic and nuclear extracts of SW982 cells; assay type: cell-based, human; conditions: 12 hours, increasing concentrations of NMDA
# Experimental: as §1, with “needed. […]” for “needed.”
# Western blot analysis was used to measure NR1 in both nuclear and cytosolic or total protein extracts using established methods (Kaufmann et al., J. Neurochem., 76, 1099–1108 (2001)). […] After three washes with Tris-buffered saline, immunoreactive bands were detected by a chemiluminescent Western blot detection kit (Amersham, Buckingamshire, UK, Catalog Number RPN2106) according to the manufacturer's instructions.
# NR1 subunit [4] = assay: Immunocytochemistry of NR1 translocation in neuroblastoma clonal line SHSY5Y; assay type: cell-based, human; conditions: neuroblastoma clonal cell model
structure (smiles),measurement,setting,value
O=c1c(-c2ccc(O)cc2)coc2cc(O)ccc12 [Daidzein],development of secondary hyperalgesia,rat arthritis model,ineffective in altering the nociceptive outcome of knee joint inflammation
same,PTK inhibitory activity,[1],lacks PTK inhibitory activity
same,effect on NMDA currents,NMDA currents,has no effect on NMDA currents
"CN[C@H](CC(=O)O)C(=O)O [NMDA, N-methyl-D-aspartate]",NR translocation to the nucleus,NR1 subunit [2],replicated the visualization of NR translocation to the nucleus
same,NR1 in the cytosol,NR1 subunit [3],dose-dependent reduction of NR1 in the cytosol
same,NR1 in the nuclear compartment,NR1 subunit [3],appearance of NR1 in the nuclear compartment
same,NR translocation to the nucleus,NR1 subunit [4],replicated the visualization of NR translocation to the nucleus
